Assay results reported in the supplement of paper PMC10733146.

Experiments:
Assay in all cases: viability relative to DMSO control (fraction); higher = less drug effect (more viable cells)
Conditions in all cases: 48 h
[1] = system: primary AML patient cells (S056)
Procedure, shortened: (§1)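 Cells were incubated for 48 h at 37 °C and 5% CO2 in RPMI-1640 with penicillin/streptomycin, L-glutamine and human serum, at 4 × 10^4 cells per well in 384-well plates with compounds pre-plated at five concentrations, one well each. These were primary mononuclear tumour cells, fresh or cryopreserved, Ficoll-isolated from blood or bone marrow or obtained from processed lymph node. Viability values are CellTiter-Glo luminescence relative to the median of 16 inner DMSO wells.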

[2] = system: primary AML patient cells (S072)
Procedure, shortened: as §1

[3] = system: primary AML patient cells (S071)
Procedure, shortened: as §1

[4] = system: primary FL patient cells (S087)
Procedure, shortened: as §1

[5] = system: primary MCL patient cells (S068)
Procedure, shortened: as §1

[6] = system: primary B-PLL patient cells (S016)
Procedure, shortened: as §1

[7] = system: primary MCL patient cells (S053)
Procedure, shortened: as §1

[8] = system: primary FL patient cells (S022)
Procedure, shortened: as §1

[9] = system: primary MCL patient cells (S063)
Procedure, shortened: as §1

[10] = system: primary MCL patient cells (S041)
Procedure, shortened: as §1

[11] = system: primary AML patient cells (S009)
Procedure, shortened: as §1

[12] = system: primary CLL patient cells (S031)
Procedure, shortened: as §1

[13] = system: primary ALL patient cells (S048)
Procedure, shortened: as §1

[14] = system: primary AML patient cells (S055)
Procedure, shortened: as §1

[15] = system: primary T-PLL patient cells (S008)
Procedure, shortened: as §1

[16] = system: primary DLBCL patient cells (S082)
Procedure, shortened: as §1

[17] = system: primary AML patient cells (S060)
Procedure, shortened: as §1

[18] = system: primary ALL patient cells (S088)
Procedure, shortened: as §1

[19] = system: primary AML patient cells (S079)
Procedure, shortened: as §1

[20] = system: primary BL patient cells (S005)
Procedure, shortened: as §1

Structure (SMILES): O=C(Nc1nc2ccccc2n1CCN1CCOCC1)c1cccc([N+](=O)[O-])c1 [IRAK-1/4 INHIBITOR I]
- viability ([1]; 0.016 µM): 0.693
- viability ([1]; 0.08 µM): 1.13
- viability ([1]; 0.4 µM): 0.585
- viability ([1]; 2 µM): 0.817
- viability ([1]; 10 µM): 0.783
- viability ([2]; 0.016 µM): 0.921
- viability ([2]; 0.08 µM): 0.985
- viability ([2]; 0.4 µM): 0.909
- viability ([2]; 2 µM): 0.869
- viability ([2]; 10 µM): 0.916
- viability ([3]; 0.016 µM): 0.925
- viability ([3]; 0.08 µM): 0.918
- viability ([3]; 0.4 µM): 0.815
- viability ([3]; 2 µM): 0.783
- viability ([3]; 10 µM): 0.636
- viability ([4]; 0.016 µM): 0.933
- viability ([4]; 0.08 µM): 1.02
- viability ([4]; 0.4 µM): 0.989
- viability ([4]; 2 µM): 0.994
- viability ([4]; 10 µM): 1.08
- viability ([5]; 0.016 µM): 0.977
- viability ([5]; 0.08 µM): 0.997
- viability ([5]; 0.4 µM): 1.13
- viability ([5]; 2 µM): 1.27
- viability ([5]; 10 µM): 1.41
- viability ([6]; 0.016 µM): 0.968
- viability ([6]; 0.08 µM): 1.05
- viability ([6]; 0.4 µM): 0.969
- viability ([6]; 2 µM): 0.937
- viability ([6]; 10 µM): 1.04
- viability ([7]; 0.016 µM): 0.823
- viability ([7]; 0.08 µM): 0.939
- viability ([7]; 0.4 µM): 0.915
- viability ([7]; 2 µM): 0.977
- viability ([7]; 10 µM): 1.09
- viability ([8]; 0.016 µM): 0.887
- viability ([8]; 0.08 µM): 0.974
- viability ([8]; 0.4 µM): 0.885
- viability ([8]; 2 µM): 0.915
- viability ([8]; 10 µM): 0.913
- viability ([9]; 0.016 µM): 0.993
- viability ([9]; 0.08 µM): 0.961
- viability ([9]; 0.4 µM): 1.02
- viability ([9]; 2 µM): 1.03
- viability ([9]; 10 µM): 1.11
- viability ([10]; 0.016 µM): 0.947
- viability ([10]; 0.08 µM): 1.1
- viability ([10]; 0.4 µM): 0.955
- viability ([10]; 2 µM): 0.981
- viability ([10]; 10 µM): 0.993
- viability ([11]; 0.016 µM): 1.01
- viability ([11]; 0.08 µM): 0.993
- viability ([11]; 0.4 µM): 0.965
- viability ([11]; 2 µM): 0.933
- viability ([11]; 10 µM): 0.98
- viability ([12]; 0.016 µM): 0.897
- viability ([12]; 0.08 µM): 0.91
- viability ([12]; 0.4 µM): 0.906
- viability ([12]; 2 µM): 0.861
- viability ([12]; 10 µM): 0.877
- viability ([13]; 0.016 µM): 0.726
- viability ([13]; 0.08 µM): 0.836
- viability ([13]; 0.4 µM): 0.811
- viability ([13]; 2 µM): 0.834
- viability ([13]; 10 µM): 0.808
- viability ([14]; 0.016 µM): 0.985
- viability ([14]; 0.08 µM): 0.994
- viability ([14]; 0.4 µM): 1.01
- viability ([14]; 2 µM): 1.02
- viability ([14]; 10 µM): 0.958
- viability ([15]; 0.016 µM): 0.933
- viability ([15]; 0.08 µM): 1
- viability ([15]; 0.4 µM): 0.935
- viability ([15]; 2 µM): 0.954
- viability ([15]; 10 µM): 1.03
- viability ([16]; 0.016 µM): 0.863
- viability ([16]; 0.08 µM): 0.932
- viability ([16]; 0.4 µM): 0.926
- viability ([16]; 2 µM): 1.02
- viability ([16]; 10 µM): 1.07
- viability ([17]; 0.016 µM): 0.973
- viability ([17]; 0.08 µM): 1
- viability ([17]; 0.4 µM): 0.974
- viability ([17]; 2 µM): 1
- viability ([17]; 10 µM): 1.02
- viability ([18]; 0.016 µM): 0.747
- viability ([18]; 0.08 µM): 0.862
- viability ([18]; 0.4 µM): 0.856
- viability ([18]; 2 µM): 0.826
- viability ([18]; 10 µM): 0.941
- viability ([19]; 0.016 µM): 0.929
- viability ([19]; 0.08 µM): 0.93
- viability ([19]; 0.4 µM): 0.885
- viability ([19]; 2 µM): 0.906
- viability ([19]; 10 µM): 0.949
- viability ([20]; 0.016 µM): 1.02
- viability ([20]; 0.08 µM): 1.09
- viability ([20]; 0.4 µM): 1.04
- viability ([20]; 2 µM): 0.984
- viability ([20]; 10 µM): 1.09
